Measured values from PubChem BioAssay (NCI).
“And” between values parts separate entries of the source, which are not always exact repeats. Equal values may be shown once.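 Step 1: Grow cells in 96-well plates. Step 2: Expose to compound for 48 hours at 5 concentrations. Step 3: Interpolate endpoints linearly; if unreached, use highest concentration. GI50 marks 50% less growth. TGI denotes the concentration required for complete inhibition of growth.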

Tests used:
Test in all cases: inhibition of tumour cell growth, NCI panel, 48 h
SNB-19 CNS = tested on: SNB-19 CNS
SF-295 CNS = tested on: SF-295 CNS
SK-MEL-2 melanoma = tested on: SK-MEL-2 melanoma
NCI-H522 lung = tested on: NCI-H522 lung
U251 CNS = tested on: U251 CNS
SF-268 CNS = tested on: SF-268 CNS
NCI-H23 lung = tested on: NCI-H23 lung
SNB-75 CNS = tested on: SNB-75 CNS
COLO 205 colon = tested on: COLO 205 colon
SN12C renal = tested on: SN12C renal
BT-549 breast = tested on: BT-549 breast

`O=C(O)CCC(NC(=O)c1ccc(CNc2nc3cc(C(F)(F)F)ccc3nc2C(=O)O)cc1)C(=O)O` (stereo not drawn) was tested, and the TGI (SNB-19 CNS) was > 100 µM, the TGI (SF-295 CNS) was > 100 µM and the TGI (SK-MEL-2 melanoma) was > 100 µM. For the same compound, the TGI (NCI-H522 lung) was > 100 µM, the TGI (U251 CNS) was > 100 µM and the TGI (SF-268 CNS) was > 100 µM. The TGI (NCI-H23 lung) was > 100 µM, the TGI (SNB-75 CNS) was > 100 µM and the TGI (COLO 205 colon) was > 100 µM.

In the case of `COC1(C)CNCC(C)(C)NC(=O)C(C)(OC)CNCC(C)(C)NC1=O` (stereo not drawn), the TGI (SNB-19 CNS) is reported as > 100 µM, the TGI (SF-295 CNS) is reported as > 100 µM and the TGI (SK-MEL-2 melanoma) is reported as > 100 µM. For the same compound, the TGI (NCI-H522 lung) was > 100 µM, the TGI (U251 CNS) was > 100 µM and the TGI (SF-268 CNS) was > 100 µM. The TGI (NCI-H23 lung) was > 100 µM, the TGI (SNB-75 CNS) was > 100 µM and the TGI (SN12C renal) was > 100 µM. For the same compound, the TGI (COLO 205 colon) was > 100 µM.

`COc1ccc(NC(=O)NNS(=O)(=O)c2ccc(C)cc2)cc1` was tested, and the TGI (SNB-19 CNS) was > 100 µM, the TGI (SF-295 CNS) was > 100 µM and the TGI (SK-MEL-2 melanoma) was > 100 µM. For the same compound, the TGI (NCI-H522 lung) was > 100 µM, the TGI (U251 CNS) was > 100 µM and the TGI (SF-268 CNS) was > 100 µM. The TGI (NCI-H23 lung) was > 100 µM, the TGI (SNB-75 CNS) was > 100 µM and the TGI (SN12C renal) was > 100 µM. The TGI (COLO 205 colon) was > 100 µM.

With `CC[C@]1(Cc2ccc(OC)c(OC)c2)C=[N+]([O-])O[C@H](OCc2ccccc2)[C@@H]1OC(C)=O` the TGI (SNB-19 CNS) was > 100 µM, the TGI (SF-295 CNS) was > 100 µM and the TGI (SK-MEL-2 melanoma) was 79.3 µM. The TGI (NCI-H522 lung) was 28.5 µM, the TGI (U251 CNS) was > 100 µM and the TGI (SF-268 CNS) was 70.9 µM. For the same compound, the TGI (NCI-H23 lung) was > 100 µM, the TGI (SNB-75 CNS) was > 100 µM and the TGI (COLO 205 colon) was 34.5 µM.

`COC(=O)CNC(=O)CSc1nnc(COc2ccc(Cl)cc2)n1-c1ccccc1` was tested, and the TGI (SNB-19 CNS) was > 100 µM, the TGI (SF-295 CNS) was > 100 µM and the TGI (SK-MEL-2 melanoma) was 50.7 µM. For the same compound, the TGI (NCI-H522 lung) was 34.7 µM, the TGI (U251 CNS) was > 100 µM and the TGI (SF-268 CNS) was 46.6 µM. The TGI (NCI-H23 lung) was > 100 µM, the TGI (SNB-75 CNS) was 35.5 µM and the TGI (SN12C renal) was 38.5 µM. For the same compound, the TGI (COLO 205 colon) was > 100 µM.

`COc1cc2cnc3c4cc(OC)c(OC(C)C)cc4ccc3c2cc1OC` was tested, and the TGI (SNB-19 CNS) was > 100 µM, the TGI (SF-295 CNS) was > 100 µM and the TGI (SK-MEL-2 melanoma) was > 100 µM. For the same compound, the TGI (NCI-H522 lung) was > 100 µM, the TGI (U251 CNS) was > 100 µM and the TGI (SF-268 CNS) was > 100 µM. For the same compound, the TGI (NCI-H23 lung) was > 100 µM, the TGI (SNB-75 CNS) was > 100 µM and the TGI (SN12C renal) was > 100 µM. For the same compound, the TGI (COLO 205 colon) was > 100 µM.

`Nc1ncc2c(n1)-c1ccccc1OC2N1CCOCC1` (stereo not drawn) was tested, and the TGI (SNB-19 CNS) was > 100 µM, the TGI (SF-295 CNS) was > 100 µM and the TGI (SK-MEL-2 melanoma) was > 100 µM. The TGI (NCI-H522 lung) was > 100 µM, the TGI (U251 CNS) was > 100 µM and the TGI (SF-268 CNS) was > 100 µM. The TGI (NCI-H23 lung) was > 100 µM, the TGI (SNB-75 CNS) was > 100 µM and the TGI (SN12C renal) was > 100 µM. The TGI (COLO 205 colon) was > 100 µM.

In the case of `Cc1ccc2c(c1)CC1(C2)Cc2ccc(C)cc2C1=O` (stereo not drawn), the TGI (SNB-19 CNS) is reported as > 100 µM, the TGI (SF-295 CNS) is reported as > 100 µM and the TGI (SK-MEL-2 melanoma) is reported as 47.1 µM. For the same compound, the TGI (NCI-H522 lung) was 61.3 µM, the TGI (U251 CNS) was > 100 µM and the TGI (SF-268 CNS) was > 100 µM. For the same compound, the TGI (NCI-H23 lung) was > 100 µM, the TGI (SNB-75 CNS) was 84.3 µM and the TGI (SN12C renal) was > 100 µM. The TGI (COLO 205 colon) was 44.3 µM.

`COC(=O)/C(=N\N)C(C(=O)C(=O)Nc1nc(=S)[nH][nH]1)c1nc2ccc([N+](=O)[O-])cc2[nH]c1=O` (stereo not drawn) was tested, and the TGI (SNB-19 CNS) was > 100 µM, the TGI (SF-295 CNS) was > 100 µM and the TGI (SK-MEL-2 melanoma) was > 100 µM. The TGI (NCI-H522 lung) was > 100 µM, the TGI (U251 CNS) was > 100 µM and the TGI (SF-268 CNS) was > 100 µM. For the same compound, the TGI (NCI-H23 lung) was > 100 µM, the TGI (SNB-75 CNS) was > 100 µM and the TGI (SN12C renal) was > 100 µM. For the same compound, the TGI (COLO 205 colon) was > 100 µM.

For `COc1cccc(CCn2c(N)c(C#N)c3ccc([N+](=O)[O-])cc3c2=O)c1`, the TGI (SNB-19 CNS) was > 100 µM, the TGI (SF-295 CNS) was > 31.6 µM and the TGI (SK-MEL-2 melanoma) was > 46.4 µM. For the same compound, the TGI (U251 CNS) was > 100 µM, the TGI (SF-268 CNS) was > 46.4 µM and the TGI (NCI-H23 lung) was > 46.4 µM. For the same compound, the TGI (SNB-75 CNS) was > 46.4 µM, the TGI (SN12C renal) was > 100 µM and the TGI (COLO 205 colon) was > 100 µM.

In the case of `CCN1C/C(=C\c2ccc(Cl)cc2)c2[nH]c(=O)c(C#N)c(-c3ccc(Cl)cc3)c2C1`, the TGI (SNB-19 CNS) is reported as > 100 µM, the TGI (BT-549 breast) is reported as > 100 µM and the TGI (SK-MEL-2 melanoma) is reported as > 100 µM. For the same compound, the TGI (U251 CNS) was > 100 µM, the TGI (SF-268 CNS) was > 100 µM and the TGI (NCI-H23 lung) was > 100 µM. The TGI (SN12C renal) was > 100 µM and the TGI (COLO 205 colon) was > 100 µM.

For `COC1OC(Cn2cc([N+](=O)[O-])nc2C)C(O)C(O)C1O` (stereo not drawn), the TGI (SNB-19 CNS) was > 100 µM, the TGI (SF-295 CNS) was > 100 µM and the TGI (SK-MEL-2 melanoma) was > 100 µM. For the same compound, the TGI (NCI-H522 lung) was > 100 µM, the TGI (U251 CNS) was > 100 µM and the TGI (NCI-H23 lung) was > 100 µM. For the same compound, the TGI (COLO 205 colon) was > 100 µM.

`COc1cc2c(cc1OC)[C@H]1C(COC(=O)Nc3ccccc3)CN1CC2` (stereo partly drawn) was tested, and the TGI (SNB-19 CNS) was > 100 µM, the TGI (SF-295 CNS) was > 100 µM and the TGI (SK-MEL-2 melanoma) was > 100 µM. The TGI (NCI-H522 lung) was > 100 µM, the TGI (U251 CNS) was > 100 µM and the TGI (SF-268 CNS) was > 100 µM. The TGI (NCI-H23 lung) was > 100 µM, the TGI (SNB-75 CNS) was 79.3 µM and the TGI (SN12C renal) was > 100 µM. For the same compound, the TGI (COLO 205 colon) was > 100 µM.

For `Cc1cc(C)c(C(=O)C(C)C(c2ccccc2)c2ccc(Cl)cc2)c(C)c1` (stereo not drawn), the GI50 (SNB-19 CNS) was > 100 µM, the TGI (SNB-19 CNS) was > 100 µM and the TGI (SF-295 CNS) was > 100 µM. For the same compound, the GI50 (SK-MEL-2 melanoma) was 9.38 µM and 32.1 µM, the TGI (SK-MEL-2 melanoma) was > 100 µM and the GI50 (NCI-H522 lung) was > 100 µM and 15.9 µM. For the same compound, the TGI (NCI-H522 lung) was > 100 µM and 65.5 µM, the TGI (U251 CNS) was > 100 µM and the TGI (SF-268 CNS) was > 100 µM. The TGI (NCI-H23 lung) was > 100 µM, the TGI (SNB-75 CNS) was > 100 µM and the TGI (SN12C renal) was > 100 µM. The TGI (COLO 205 colon) was > 100 µM.

For `O=c1[nH]c(=O)n(C2CC(O)C(COP(=O)(OCC(Cl)(Cl)Cl)OCC(Cl)(Cl)Cl)O2)cc1F` (stereo not drawn), the TGI (SNB-19 CNS) was > 100 µM, the TGI (SF-295 CNS) was > 100 µM and the TGI (SK-MEL-2 melanoma) was > 100 µM. For the same compound, the TGI (NCI-H522 lung) was > 34.8 µM, the TGI (U251 CNS) was > 100 µM and the TGI (SF-268 CNS) was > 100 µM. For the same compound, the TGI (NCI-H23 lung) was > 100 µM, the TGI (SNB-75 CNS) was > 100 µM and the TGI (SN12C renal) was > 100 µM. The TGI (COLO 205 colon) was > 100 µM.

`N[C@H]1CCN(c2c(F)cc3c(=O)c(C(=O)O)cn4c3c2Oc2c-4ccc3c2ccc2ccccc23)C1` was tested, and the TGI (SNB-19 CNS) was > 100 µM, the TGI (SF-295 CNS) was > 100 µM and the TGI (BT-549 breast) was > 69.3 µM. The TGI (SK-MEL-2 melanoma) was > 100 µM, the TGI (U251 CNS) was 6.76 µM and the TGI (NCI-H23 lung) was > 71.7 µM. The TGI (SN12C renal) was > 100 µM and the TGI (COLO 205 colon) was > 100 µM.
